Several values for one entry are separate records, joined by “and”; a condition that tells them apart may be missing. Equal values may be shown once. Read-outs that look alike come from different tables or passages of the source.
Columns and labels:
apo(a) KIV2 = molecular target: T1, apo(a) KIV2 (Homo sapiens, UniProt P08519); test: ITC binding to apo(a) KIV2; details: ITC, in words
T1 construct: made in house
T1 sequence (P08519 141-219 limits assumed): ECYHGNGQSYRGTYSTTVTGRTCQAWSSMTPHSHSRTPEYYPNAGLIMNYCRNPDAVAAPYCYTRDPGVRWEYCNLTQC
Method: The nucleotide sequence encoding the human LPA gene (NP_005568.2) was inserted into a mammalian expression vector containing a cytomegalovirus promoter. Protein expression was performed by transient transfection of human embryonic kidney 293 (HEK293) cells cultured in serum-free medium. The culture medium was collected five days after transfection and human apo(a) protein was purified using L-lysine affinity chromatography. Nucleotide sequences encoding various KIV domains of human apo(a) and human and rat plasminogen were inserted into a pET21a Escherichia coli expression vector. Bacterial BL21(DE3) was used as the expression host, and the induction of protein expression was performed in 2× TY medium with 1 mM isopropyl β-D-1-thiogalactopyranoside at 37 °C for 5 h. Cells were collected and stored at –80 °C for subsequent protein purification and refolding. The frozen cell pellets were lysed and inclusion bodies were purified. The protein refolding was performed using the rapid-dilution method, and the refolded proteins were further purified by size-exclusion chromatography. All protein concentrations were determined by A280.
Experiments were performed on a MicroCal Auto-iTC200 titration calorimeter (Malvern Panalytical), with a cell volume of 200 μl and a 40-μl microsyringe. Experiments were performed at 25 °C while stirring at 750 rpm in ITC buffer (50 mM phosphate buffer at pH 8.0). The microsyringe was loaded with a solution of the respective compounds, with the concentration measured by quantitative nuclear magnetic resonance, and was inserted into the calorimetric cell prefilled with the respective recombinant proteins of known concentration in ITC buffer. The system was equilibrated to 25 °C and an extra delay of 60 s was applied. The first titrations were performed using an initial control injection of 0.5 μl, followed by 18 identical injections of 2 μl, with a duration of 4 s per injection and 150-s intervals between injections. The second titration was performed over the first titration without cleaning the cell and was carried out with continuous injections as an automation method in a MicroCal Auto-iTC200. The second titrations were performed using 19 identical injections of 2 μl, with a duration of 4 s per injection and 150-s injection intervals. The data were corrected for ligand heats of dilution and were deconvoluted using MicroCal PEAQ-ITC Analysis Software to yield the enthalpy of binding (ΔH) and the binding constant (K). Thermodynamic parameters were calculated using the basic equation of thermodynamics (ΔG = ΔH – TΔS = –RTlnKd), where ΔG, ΔH and ΔS are the changes in free energy, enthalpy and entropy of binding, respectively; Kd is the equilibrium dissociation constant; T is the absolute temperature (kelvins); and R is the gas constant (1.987 cal mol^−1 K^−^1). A single-binding-site model was used in MicroCal PEAQ-ITC Analysis Software v.0.9.

Lp(a) = Lp(a) levels in LPA × ApoB100 transgenic mice; assay type: in vivo, mouse; parameters: Lp(a) / Diff_vs_Vehicle: unit not given here; details: for Percent_change_from_Vehicle / Diff_vs_Vehicle: Lp(a); for Percent_change_from_Vehicle / Diff_vs_Vehicle / Lp(a): transgenic mice; for Percent_change_from_Vehicle / Lp(a): individual animal; for Diff_vs_Vehicle: group statistics
Method: (§1) The LPA gene (GenBank accession code NM_005577) encoding the human apo(a) protein with a signal peptide, one KIV type 1, six KIV type 2 repeats, one each of KIV types 3–10, one KV and one protease domain was subcloned into a transgenic vector containing a mouse albumin promoter cassette and a human growth hormone polyadenylation signal. The transgenic mouse line was generated by pronucleus injection of the LPA transgenic vector. Eight individual transgenic founder mice were assessed for germline transmission of LPA by genotyping and assessment of the levels of apo(a) in the plasma. Positive founder mice were crossed with ApoB100 transgenic mice (Taconic model 1004), and the resulting mouse line nomenclature (B6.SJL-Tg(APOB)1102Sgy Tg(Alb-LPA)32Arte) was selected on the basis of the confirmation of germline transmission, the identification of LPA and huApoB100 transgenes and the levels of Lp(a) in the plasma. Mice hemizygous for both transgenes were used for pharmacology studies. The studies were conducted in female Lp(a) double transgenic mice (age around 7–17 months). Mice were housed in cages with a standard light cycle (12-h light, 12-h dark), at room temperature (22 ± 4 °C), with a relative humidity of 30–70%. Mice were identified by numbers on the cage cards. After arrival, mice were fed on a normal diet (Harlan Teklad diet 2014). Mice were randomized to treatment groups (n = 5 per group, unless otherwise noted) by body weight and baseline plasma Lp(a) concentration using a block randomized allocation tool (BRAT) for the study. In an example Lp(a) transgenic mouse study in which 66 mice were prescreened for baseline Lp(a) levels, the average Lp(a) level was 45 ± 1.8 µg ml^−1 (range 20–78 µg ml^−1). Mice were dosed with various compounds in vehicle (10 ml kg^−1, 1% hydroxyethyl cellulose (HEC), 0.25% Tween-80, Antifoam) or with vehicle alone as a control orally BID for five days. Blood samples were collected by tail bleeds at designated times, and Lp(a) levels were determined by ELISA by an investigator who was blinded to group allocation. In brief, lipoprotein particles were captured by a goat anti-Lp(a)-antibody-coated plate (Abcam ab31675, diluted 1:12,500 in HEPES-buffered saline), the plates were washed and samples were detected using an HRP-conjugated goat anti-apoB antibody (Abcam ab27622, diluted 1:3,000). Colorimetric peroxidase substrate 3,3’,5,5’-TMB was added, and the reaction was stopped using 1 N sulfuric acid. Absorbance at 450 nm was read on a Molecular Devices SpectraMax plate reader. Blood samples were collected at four hours after dosing on day 5 of dosing to confirm exposure. Full pharmacokinetic (PK) profiles were not evaluated. Concentrations of compounds were evaluated from dried blood spots through a non-Good Laboratory Practice (GLP) liquid chromatography with tandem mass spectrometry (LC–MS/MS) assay. Data were analysed in GraphPad Prism v.9.5.1

[1] = Drug concentration in mouse blood after oral dosing; assay type: in vivo; details: female, whole blood (dried blood spots), day 5, read-out: Drug concentration, 4-h time point
Method: as §1

[2] = Pharmacokinetics in monkey plasma after oral dosing; assay type: in vivo; details: cynomolgus; for Cmax / Tmax: day 14; for AUC(0-t): day 14, read-out: AUC(0–12 h)
[3] = Lp(a) transgenic mice, oral BID, five days
[4] = 3mpk oral BID five days, 3 mg/kg
[5] = 10mpk oral BID five days, 10 mg/kg
[6] = 30mpk oral BID five days, 30 mg/kg
[7] = 100mpk oral BID five days, 100 mg/kg

SMILES: Cl.O=C(O)[C@@H](Cc1ccccc1)[C@H]1CCNC1 [LSN3353871]
- binding to KIV2 (apo(a) KIV2): does not bind
- % max Lp(a) decrease (dose, mg/kg) (Lp(a); Lp(a) transgenic mice section, dose 20 mg/kg): 40 (20) %
- % Lp(a) max decrease (Lp(a); Lp(a) transgenic mice, BID, 5 days dosing): 78%
- ED50 for Lp(a) reduction (Lp(a); [3]): 14 mg/kg
- maximum decrease in Lp(a) levels (Lp(a); [3]): up to 78%
- Percent_change_from_Vehicle (Lp(a); [4]): -29.9395% and -21.6818% and -23.4274% and -25.3773% and -20.1775%
- Diff_vs_Vehicle (Lp(a); 3mpk): -3.8966
- Percent_change_from_Vehicle (Lp(a); [5]): -56.5511% and -68.7767% and -51.9146% and -54.3536%
- Diff_vs_Vehicle (Lp(a); 10mpk): -9.353
- Percent_change_from_Vehicle (Lp(a); [6]): -73.0355% and -73.0232% and -55.5978% and -55.3749% and -63.9731%
- Diff_vs_Vehicle (Lp(a); 30mpk): -10.3714
- Percent_change_from_Vehicle (Lp(a); [7]): -69.9343% and -77.4368% and -71.3085% and -83.0203% and -88.6967%
- Diff_vs_Vehicle (Lp(a); 100mpk): -12.6134
- ED50 (Lp(a); Mus musculus, 120 h, Lp(a) transgenic mice, BID, 5 days dosing): 14 mg/kg
- Lp(a) (Lp(a); [4]): 11.318 and 12.652 and 12.37 and 12.055 and 12.895
- Lp(a) (Lp(a); [5]): 7.019 and 5.044 and 7.768 and 7.374
- Lp(a) (Lp(a); [6]): 4.356 and 4.358 and 7.173 and 7.209 and 5.82
- Lp(a) (Lp(a); [7]): 4.857 and 3.645 and 4.635 and 2.743 and 1.826
- concentration at 4 h ([1]; oral 3 mg/kg): 13.6 µM
- concentration at 4 h ([1]; oral 10 mg/kg): 21.6 µM
- concentration at 4 h ([1]; oral 30 mg/kg): 28 µM
- concentration at 4 h ([1]; oral 100 mg/kg): 38 µM
- Cmax ([2]; oral 20 mg/kg): 22.3 µM
- Tmax ([2]; oral 20 mg/kg): 1.5 ± 0.5 h
- AUC(0-t) ([2]; oral 20 mg/kg): 136 µM·h
- Cmax ([2]; oral 40 mg/kg): 29.6 µM
- Tmax ([2]; oral 40 mg/kg): 1.5 ± 0.5 h
- AUC(0-t) ([2]; oral 40 mg/kg): 210 µM·h

From article PMC11111404, “Discovery of potent small-molecule inhibitors of lipoprotein(a) formation” (Nature, 2024)
